From patent publication US8236510B2, “Protein showing enhanced expression in cancer cells” (Agensys, Inc., priority 1999, dated 2012)
“Also recorded” adds a separate entry of the source. Ends that are not written are not given here.

Legend:
[1] = system: ERK phosphorylation in PC3-101P3A11 cells; assay: ERK phosphorylation in PC3-101P3A11 and PC3-neo cells (anti-Phospho-ERK Western blot); assay type: cell-based, human; settings: for inhibition of ERK phosphorylation and activation: PC3-101P3A11 and 3T3-101P3A11 cells, FBS
Procedure: Using Western blotting and other techniques, the ability of 101P3A11 to regulate these pathways is confirmed. Cells expressing or lacking 101P3A11 are either left untreated or stimulated with cytokines, androgen and anti-integrin antibodies. Cell lysates were analyzed using anti-phospho-specific antibodies (Cell Signaling, Santa Cruz Biotechnology) in order to detect phosphorylation and regulation of ERK, p38, AKT, PI3K, PLC and other signaling molecules. […] In the experiment, data shown in FIG. 26, control 3T3-neo and 3T3-101P3A11 cells were either treated with 0.5 or 10% FBS and whole cell lysates were analyzed by anti-phosphotyrosine Western blotting.
In this experiment, control PC3-neo cells and PC3-101P3A11 cells were left untreated (0.1% FBS) or were stimulated with 10% FBS, lipophosphatidic acid (LPA), gastrin releasing peptide (GRP), leukotriene (LKB4) or platelet activating factor (PAF). The cells were lysed and analyzed by Western blotting using anti-Phospho-ERK (FIG. 27A) or anti-ERK (FIG. 27B) mAb. […] In order to delineate the signaling pathway by which 101P3A11 mediates ERK phosphorylation in cancer cells, it was confirmed which of the two pathway inhibitors: MEK inhibitor PD98059 or the p38 inhibitor SB203580 regulate 101P3A11 mediated ERK phosphorylation (FIG. 28). […] Cells were lysed and analyzed by Western blotting using anti-Phospho-ERK or anti-ERK mAb. Treatment with 10% FBS or with GRP induced the phosphorylation of ERK in PC3-101P3A11 but not in control PC3-neo cells. 101P3A11-mediated ERK phosphorylation was inhibited by the MEK-1 inhibitor PD98059 but not the p38 inhibitor SB203580 or genistein.
Results in FIGS. 26-28 indicate that 101P3A11 regulates the activity of kinases, including ERK, and phosphatases. In order to confirm the association of 101P3A11 with phosphatase activity, the effect of the protein phosphatase inhibitor sodium orthovanadate on 101P3A11 mediated ERK phosphorylation was determined (FIG. 29). PC3-neo and PC3-101P3A11 cells were grown in media alone or in the presence of sodium orthovanadate (Na3VO4), and were stimulated with 0.1% or 10% FBS. Cells were lysed and analyzed by Western blotting using anti-Phospho-ERK or anti-ERK mAb. […] Results in FIG. 29 confirm the contribution of protein phosphatases to 101P3A11 mediated signaling.
In order to determine whether 101P3A11 signaling results in the activation of EGFR, we compared the effect of the EGFR inhibitor, AG1517, on EGFR- and 101P3A11-mediated ERK phosphorylation (FIG. 30). In FIG. 30, PC3-neo and PC3-101P3A11 cells were grown in media alone (0.1% FBS) or in the presence of AG1517. The cells were stimulated with 0.1% or 10% FBS, GRP or EGF, lysed and analyzed by Western blotting using anti-Phospho-ERK or anti-ERK mAb. Treatment with 10% FBS, GRP and EGF induced ERK phosphorylation in PC3-101P3A11 cells. […] Data in FIG. 30 indicate that some cross talk occurred between 101P3A11 and EGFR signaling pathways.
(§1) Since adenylate cyclase activity modulates intracellular levels of cAMP and induce downstream signaling events such as activation of protein kinase A, calcium and ERK MAPK signaling (Pierce K. L., et al, Oncogene. 2001, 20: 1532), we determined that PTX, an inhibitor of adenylate cyclase signaling, prevents 101P3A11-mediated ERK phosphorylation along with inhibiting cAMP accumulation (FIG. 33 and FIG. 34). PC3-neo and PC3-101P3A11 cells were grown overnight in 0.1% FBS in media alone or in the presence of pertussis toxin (PTX). Cells were stimulated with 0.1% or 10% FBS (FIG. 33) or 10% FBS, EGF or GRP (FIG. 34). Cells were lysed and analyzed by Western blotting using anti-Phospho-ERK mAb. Expression of 101P3A11 mediated ERK phosphorylation by 10% FBS in PC3 cells, which was inhibited by PTX (FIG. 33 and FIG. 34).
GPCR transmit their signal by activating trimeric G proteins. […]

3T3-101P3A11 cells = assay: Proliferation of 3T3 and 3T3-101P3A11 cells (Alamar blue); assay type: cell-based; settings: for effect on proliferation: control 3T3 cells
PC3-101P3A11 cells = assay: Proliferation of PC3-101P3A11 and PC3-neo cells; assay type: cell-based, human; settings: PC3-101P3A11 cells grown in 5% FBS
Procedure: as §1
GPCR transmit their signal by activating trimeric G proteins. Once GPCRs are activated, the associated Ga subunit binds GTP, dissociates from the receptor and participates in downstream signaling events (Schild, D., and Restrepo, D. Physiol Rev. 1998, 78:429-66). In order to determine that inhibition of Ga subunits has an effect on 101P3A11 mediated cell growth, the effect of two Ga inhibitors on the proliferation of 3T3-101P3A11 cells was investigated. Control 3T3 and 3T3-101P3A11 cells were grown in the presence or absence of suramin or its derivative NF 449 (Sigma). Cells were analyzed for proliferation 72 hours later (FIG. 35). The experiment was performed in triplicate. […] This response was 101P3A11 specific as suramin and NF449 had no effect on the proliferation of control 3T3 cells. Similarly, inhibition of G protein activation by suramin and NF449 in PC3 cells inhibits the proliferation of PC3-101P3A11 cells grown in 5% FBS (Figure M4). […] This ERK phosohorylation and activation was inhibited by suramin and NF449 in PC3-101P3A11 and 3T3-101P3A11 cells. ERK phosphorylation was inhibited in a dose dependent manner in PC3-101P3A11 cells treated with suramin. […]

LAPC-9 cells = assay: Androgen regulation in LAPC-9 cells (Northern blot); assay type: cell-based; settings: charcoal-stripped medium
Procedure: In order to assay for androgen regulation of 101P3A11 expression, LAPC-9 cells were grown in charcoal-stripped medium and stimulated with the synthetic androgen mibolerone, for either 14 or 24 hours (FIG. 15A, FIG. 15B, and FIG. 15C). Northern blots with 10 μg of total RNA/lane were probed with the 101P3A11 sequences (FIG. 15A). A picture of the ethidium-bromide staining of the RNA gel is also presented (FIG. 15C). […] The experimental samples were confirmed by testing for the expression of the androgen-regulated prostate cancer gene PSA (FIG. 15B).

3T3-101P3A11 tumors = assay: Subcutaneous growth of 3T3-101P3A11 tumors in SCID mice; assay type: in vivo
Procedure: (2) Regulated expression under control of an inducible vector system, such as ecdysone, tet, etc., can be used provided such promoters are compatible with the host cell systems. […] FIG. 21 compares subcutaneous growth of control 3T3-neo and 3T3-101P3A11 cells. One million cells stably expressing neo or 101P3A11 were injected subcutaneously in SCID mice along with matrigel. Tumor volume was evaluated by caliper measurements. […] Additionally, SCID mice were implanted with the same 3T3-101P3A11 cells orthotopically in the prostate to determine if 101P3A11 has an effect on local growth in the prostate or on the ability of the cells to metastasize, specifically to lungs or lymph nodes. […] In an analogous manner, cells can be implanted orthotopically in the bladder, colon or kidney. (Saffran, D., et al., PNAS 10:1073-1078; Fu, X., et al., Int. J. Cancer, 1991, 49: p. 938-939; Chang, S., et al., Anticancer Res., 1997, 17: p. 3239-3242; Peralta, E. A., et al., J. Urol., 1999, 162: p. 1806-1811). The tumor enhancing effect of 101P3A11 was also observed when 101P3A11 is expressed in prostate cancer cells such as PC3 and introduced into the prostate of SCID mice (Figure M11). A 2.5 fold increase in tumor weight is observed in tumors expressing 101P3A11 relative to control cells.
Furthermore, these assays is useful to confirm the anti-101P3A11 inhibitory effects of candidate therapeutic compositions, such as for example, 101P3A11 antibodies or intrabodies, and 101P3A11 antisense molecules or ribozymes, or 101P3A11 directed small molecules. In FIG. 22, we depict the effect of a small molecule, pertussis toxin (PTX) on tumor formation by 3T3-101P3A11 cells. In this experiment, SCID mice were injected with 3T3-101P3A11 alone or in conjunction with PTX. Each mouse was given 5 doses of PTX at 3-4 days interval. Tumor volume was evaluated by caliper measurements. […] Similarly, treatment with the G-protein inhibitor suramin inhibits the growth of 3T3-101P3A11 tumors (Figure M13).

[2] = 101P3A11 expressing 3T3 cells, Alamar blue after 72 hours

## COc1cc2ncnc(Nc3cccc(Br)c3)c2cc1OC [AG1517]
[1]; PC3-101P3A11 cells treated with 10% FBS
  inhibition of 101P3A11 mediated ERK phosphorylation: partially inhibits
[1]; control and 101P3A11-expressing PC3 cells, EGF
  inhibition of EGF-mediated ERK phosphorylation: completely inhibited; also recorded: inhibits

## CCCCC/C=C\C[C@@H](O)/C=C/C=C/C=C\[C@@H](O)CCCC(=O)O [LKB4, leukotriene]
[1]; PC3-101P3A11 cells
  ERK phosphorylation by GPCR ligands: more modest level of ERK phosphorylation

## O=C(Nc1cc(C(=O)Nc2ccc(S(=O)(=O)O)cc2S(=O)(=O)O)cc(C(=O)Nc2ccc(S(=O)(=O)O)cc2S(=O)(=O)O)c1)Nc1cc(C(=O)Nc2ccc(S(=O)(=O)O)cc2S(=O)(=O)O)cc(C(=O)Nc2ccc(S(=O)(=O)O)cc2S(=O)(=O)O)c1 [NF449]
3T3-101P3A11 cells; 3T3-101P3A11 cells, 72 hours
  inhibition of proliferation: 80%
3T3-101P3A11 cells; [2]
  inhibition of proliferation: inhibited
3T3-101P3A11 cells; 72 hours
  effect on proliferation: no effect
PC3-101P3A11 cells
  inhibition of proliferation: inhibits
[1]
  inhibition of ERK phosphorylation and activation: inhibited

## [Na+].[Na+].[Na+].[O]=[V]([O-])([O-])[O-] [Na3VO4, sodium orthovanadate]
[1]; PC3-101P3A11 cells
  increase in ERK phosphorylation: 4.5 fold
[1]; PC3-neo cells
  increase in ERK phosphorylation: two-fold increase

## COc1cccc(-c2cc(=O)c3ccccc3o2)c1N [PD98059]
[1]; PC3-101P3A11 cells stimulated with FBS or GRP
  inhibition of 101P3A11-mediated ERK phosphorylation: inhibited

## C[C@@H]1CC2=CC(=O)CC[C@@H]2[C@H]2CC[C@@]3(C)[C@@H](CC[C@]3(C)O)[C@@H]21 [mibolerone]
LAPC-9 cells; 14 and 24 hours
  expression of PSA: induced
LAPC-9 cells; 14 or 24 hours
  expression of 101P3A11: not regulated

## Cc1ccc(C(=O)Nc2ccc(S(=O)(=O)O)c3cc(S(=O)(=O)O)cc(S(=O)(=O)O)c23)cc1NC(=O)c1cccc(NC(=O)Nc2cccc(C(=O)Nc3cc(C(=O)Nc4ccc(S(=O)(=O)O)c5cc(S(=O)(=O)O)cc(S(=O)(=O)O)c45)ccc3C)c2)c1 [suramin]
3T3-101P3A11 cells; 3T3-101P3A11 cells, 72 hours
  inhibition of proliferation: 60%
3T3-101P3A11 cells; [2]
  inhibition of proliferation: inhibited
3T3-101P3A11 cells; 72 hours
  effect on proliferation: no effect
3T3-101P3A11 tumors
  inhibition of growth of 3T3-101P3A11 tumors: inhibits
PC3-101P3A11 cells
  inhibition of proliferation: inhibits
[1]
  inhibition of ERK phosphorylation and activation: inhibited

## gastrin releasing peptide (VPLPAGGGTVLTKMYPRGNHWAVGHLM; ends and bridges not checked; UniProt P07492 24-50, looked up) [GRP, GPCR ligand]
[1]; PC3-101P3A11 cells
  ERK phosphorylation by GPCR ligands: significant ERK phosphorylation

## lipophosphatidic acid [LPA]
[1]; PC3-101P3A11 cells
  ERK phosphorylation by GPCR ligands: significant ERK phosphorylation

## platelet activating factor [PAF]
[1]; PC3-101P3A11 cells
  ERK phosphorylation by GPCR ligands: significant ERK phosphorylation
